Molecules are shown by their SMILES. pIC50: −log10 of the molar value.

The target of one experiment is NMDA NR1/NR2B receptor (Homo sapiens (Human), UniProt Q13224). The experiment in a line: NMDA NR1/NR2B FLIPR calcium assay in HEK293 cells. As to conditions: glycine/glutamate-induced calcium, read-out: IC50, in vitro NR2B affinity in the FLIPR assay. The class given is cell-based. Here is the method:
A human HEK293 cell line with tetracyclin-inducible expression of NMDA NR1/NR2B receptor was used as a test system for compound efficacy and potency. The cell line was purchased from ChanTest, Catalog #CT6121. Compound activity was determined by measuring the effect of compounds on intracellular calcium concentration induced by glycine/glutamate agonism in a FLIPRtetra system (Molecular Devices).
The cells were obtained as frozen cells in cryo-vials and stored until use at −150° C. Cells were grown in culture medium (DMEM/F12, 10% FBS, 5 μg/mL Blasticidin, 150 μg/mL Zeozin, 500 μg/mL Geneticin). […] For sub-culturing the cells were detached from flasks by Versene. For the assay, cells were detached, washed twice with induction medium (DMEM/F12 without glutamine, 10% FBS, 2 μg/mL Tetracycline, 2 mM Ketamine) and seeded to 384 well pure coat amine plates (Becton Dickinson, 50000 cells per well in 50 μl) 48 h prior to assay in induction medium.
The test compounds were dissolved in 100% DMSO at a concentration of 10 mM and in a first step diluted in DMSO to a concentration of 5 mM, followed by serial dilution steps in 100% DMSO. Dilution factor and number of dilution steps may vary according to needs. Typically 8 different concentrations by 1:5 dilutions were prepared in duplicate, further intermediate dilutions (1:37.5) of the substances were carried out with aqueous assay buffer (137 mM NaCl, 4 mM KCl, 1.8 mM CaCl2), 10 mM HEPES, 10 mM Glucose, pH 7.4) resulting in a compound concentration 3 times above the final test concentration and DMSO at 2.7% resulting in 0.9% final DMSO concentration in the assay.
At the assay day cells were washed 3× with assay buffer (as described above), 10 μL buffer remained in the wells after washing. 10 μL Ca kit loading buffer (AAT Bioquest; prepared from the kit containing the following components: Component A: Fluo-8 NW dissolved in 200 μL DMSO and 20 μl of this solution are mixed with 10 ml buffer prepared out of component B and C, Component B: 10× Pluronic® F127 Plus diluted 1:10 in component C, Component C: HHBS (Hanks with 20 mM Hepes) was added to the cells and the plates were incubated with lid for 60 minutes at room temperature. 20 μl assay buffer containing 60 μM glycine (20 μM final) and 3 μM glutamate (1 μM final) was added to column 1-23, column 24 got assay buffer without glycine/glutamate to serve as negative unstimulated control. Fluorescence (indicating the calcium influx as a result of the NR1/NR2B ion channel activation) was read on the FLIPRtetra device for 60 seconds to monitor the glutamate induced effects. After 2 minutes 20 μL of compound dilution prepared as described above or controls (row 1-22) in assay buffer were carefully added to the wells. […] The average of 2 measurements at 5 minutes and 5 min 10 seconds after compound addition is calculated and further used for IC50 calculations. Each assay microtiter compound dilution plate contained wells (in column 23 or 24) with DMSO controls instead of compound as controls for glycine/glutamate induced fluorescence (high controls) and wells with 1 μM of a reference NR2B NAM as low controls (Compound 22; reference: Layton, Mark E et al, ACS Chemical Neuroscience 2011, 2(7), 352-362).
The output file of the reader contains the well number and measured average fluorescence units. For data evaluation and calculation, the measurement of the low control was set as 0% control and the measurement of the high control was set as 100% control. The IC50 values were calculated using the standard 4 parameter logistic regression formula. Calculation: [y=(a−d)/(1+(x/c)^b)+d], a=low value, d=high value; x=conc M; c=IC50 M; b=slope.

The next experiment has as its target Nav1.6 channel (Homo sapiens (Human), UniProt Q9UQD0). The experiment in a line: Nav1.6 inhibition, IonWorks Quattro electrophysiology. It is filed as cell-based. As to conditions: for inhibition at 1 µM / inhibition at 5 µM: normalized to vehicle (0%) and maximal inhibition control (100%). Here is the method: Ion Works Quattro electrophysiological platform
The compounds were prepared in DMSO at 300× the final assay concentrations of 1 and 5 μM.
The 300× DMSO stock solutions were transferred into assay plates where 2 μl per well of each 300× stock solution were placed. All assay plates were stored at −80° C. until the day of assay.
On the day of the assay, the appropriate assay plate was thawed at room temperature, centrifuged, and 198 μl of external recording solution was added and mixed thoroughly. This provided a 1:100 dilution. A further 1:3 dilution occurred upon addition to the cells in the IonWorks Quattro electrophysiological platform, giving a 1:300 dilution in total.
On each assay plate, at least 8 wells were reserved for vehicle control (0.3% DMSO) and at least 8 wells for each positive control specific to the cell line tested. The positive controls were tested at a maximal blocking and an approximate IC50 concentration. As positive control Lidocaine at concentrations of 30 and 1000 μM was used.
Amphotericin B was used to obtain electrical access to the cell interior at a final concentration of 200 μg/ml in internal recording solution.
State-dependent inhibition: Sodium channels when held at depolarized potential or long test pulse, the channels open and inactivate and then stay inactivated until the membrane potential is stepped back to hyperpolarized potentials, when the inactivated channels recover from inactivation into closed state.
Cells were held at −120 mV. In order to completely inactivate the sodium channels (pulse 1), the cells were pulsed to +0 mV for 2500 ms and stepped back to −120 mV for 10 ms (to completely recover from inactivation, however channels that had drugs bound to them will not recover from inactivation) before stepping to +0 mV for 20 ms (pulse 2).
Both the positive and vehicle control data associated with each cell line assayed are shown below as an example. The mean is shown for each positive and negative control as solid symbol with the total number of individual well replicates given next to the solid symbol. In addition, the individual data of each well are shown on the graph as open symbols so that the variation about the mean value can be readily assessed.
In FIG. 2, a Post/Pre value of 1.0 corresponds to 0% inhibition, a Post/Pre value of 0.0 corresponds to 100% inhibition.
Tables 3 and 4 show the normalized percentage inhibition of Nav1.6 channel. […] (see also the figure Assay Control Results above).
On the technique in general: Patch clamp records ionic current or voltage across a cell membrane.

Nav1.6 channel, sequence (Q9UQD0 whole entry): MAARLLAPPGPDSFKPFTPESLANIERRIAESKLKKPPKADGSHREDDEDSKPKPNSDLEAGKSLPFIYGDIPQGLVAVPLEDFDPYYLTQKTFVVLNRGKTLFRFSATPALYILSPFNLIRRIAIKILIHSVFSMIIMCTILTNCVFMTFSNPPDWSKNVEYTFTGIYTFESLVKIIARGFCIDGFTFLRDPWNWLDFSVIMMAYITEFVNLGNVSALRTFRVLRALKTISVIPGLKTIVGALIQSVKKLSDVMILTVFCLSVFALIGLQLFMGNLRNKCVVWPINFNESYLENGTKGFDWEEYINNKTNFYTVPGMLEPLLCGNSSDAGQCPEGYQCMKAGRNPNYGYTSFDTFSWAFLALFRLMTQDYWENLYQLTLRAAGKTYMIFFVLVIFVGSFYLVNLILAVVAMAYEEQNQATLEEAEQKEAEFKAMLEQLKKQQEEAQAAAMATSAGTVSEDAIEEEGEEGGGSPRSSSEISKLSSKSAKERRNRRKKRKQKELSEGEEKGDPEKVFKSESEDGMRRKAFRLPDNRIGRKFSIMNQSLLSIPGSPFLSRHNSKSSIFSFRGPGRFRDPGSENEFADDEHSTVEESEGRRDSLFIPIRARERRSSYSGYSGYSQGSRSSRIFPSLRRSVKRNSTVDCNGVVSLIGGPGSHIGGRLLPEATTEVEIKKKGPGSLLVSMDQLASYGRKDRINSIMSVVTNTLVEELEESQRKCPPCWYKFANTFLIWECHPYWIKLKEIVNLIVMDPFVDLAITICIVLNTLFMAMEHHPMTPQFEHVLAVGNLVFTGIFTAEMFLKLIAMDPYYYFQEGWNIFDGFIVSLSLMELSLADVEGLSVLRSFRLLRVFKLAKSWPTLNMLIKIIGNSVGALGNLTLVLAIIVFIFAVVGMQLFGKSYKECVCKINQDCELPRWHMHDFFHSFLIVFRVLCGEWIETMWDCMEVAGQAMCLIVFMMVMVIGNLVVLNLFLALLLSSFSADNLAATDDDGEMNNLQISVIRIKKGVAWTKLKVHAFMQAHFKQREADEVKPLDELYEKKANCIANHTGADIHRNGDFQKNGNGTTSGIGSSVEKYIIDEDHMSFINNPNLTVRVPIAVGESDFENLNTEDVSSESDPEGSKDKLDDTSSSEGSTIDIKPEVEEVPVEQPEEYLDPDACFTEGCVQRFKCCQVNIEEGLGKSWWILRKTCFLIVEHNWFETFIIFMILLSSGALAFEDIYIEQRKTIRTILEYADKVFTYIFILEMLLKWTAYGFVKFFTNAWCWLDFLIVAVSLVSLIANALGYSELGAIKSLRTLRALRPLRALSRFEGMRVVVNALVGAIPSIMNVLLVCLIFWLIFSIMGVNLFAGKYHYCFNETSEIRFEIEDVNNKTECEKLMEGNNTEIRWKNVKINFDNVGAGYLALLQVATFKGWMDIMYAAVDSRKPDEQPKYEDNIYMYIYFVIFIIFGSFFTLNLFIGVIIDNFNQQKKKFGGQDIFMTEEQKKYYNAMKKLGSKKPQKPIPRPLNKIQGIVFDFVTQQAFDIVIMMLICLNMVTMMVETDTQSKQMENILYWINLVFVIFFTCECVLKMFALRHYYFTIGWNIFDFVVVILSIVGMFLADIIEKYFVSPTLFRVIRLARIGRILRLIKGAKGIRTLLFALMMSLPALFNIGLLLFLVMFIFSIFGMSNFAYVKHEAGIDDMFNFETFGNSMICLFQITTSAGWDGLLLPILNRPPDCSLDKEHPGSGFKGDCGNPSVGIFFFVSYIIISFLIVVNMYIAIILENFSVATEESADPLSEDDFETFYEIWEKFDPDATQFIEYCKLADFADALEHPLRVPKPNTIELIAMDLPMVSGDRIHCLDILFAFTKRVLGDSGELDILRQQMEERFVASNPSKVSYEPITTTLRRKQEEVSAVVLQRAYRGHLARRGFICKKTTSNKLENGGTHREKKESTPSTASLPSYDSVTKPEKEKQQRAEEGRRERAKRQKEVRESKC
NMDA NR1/NR2B receptor, sequence (Q13224 27-1484, other chains not shown): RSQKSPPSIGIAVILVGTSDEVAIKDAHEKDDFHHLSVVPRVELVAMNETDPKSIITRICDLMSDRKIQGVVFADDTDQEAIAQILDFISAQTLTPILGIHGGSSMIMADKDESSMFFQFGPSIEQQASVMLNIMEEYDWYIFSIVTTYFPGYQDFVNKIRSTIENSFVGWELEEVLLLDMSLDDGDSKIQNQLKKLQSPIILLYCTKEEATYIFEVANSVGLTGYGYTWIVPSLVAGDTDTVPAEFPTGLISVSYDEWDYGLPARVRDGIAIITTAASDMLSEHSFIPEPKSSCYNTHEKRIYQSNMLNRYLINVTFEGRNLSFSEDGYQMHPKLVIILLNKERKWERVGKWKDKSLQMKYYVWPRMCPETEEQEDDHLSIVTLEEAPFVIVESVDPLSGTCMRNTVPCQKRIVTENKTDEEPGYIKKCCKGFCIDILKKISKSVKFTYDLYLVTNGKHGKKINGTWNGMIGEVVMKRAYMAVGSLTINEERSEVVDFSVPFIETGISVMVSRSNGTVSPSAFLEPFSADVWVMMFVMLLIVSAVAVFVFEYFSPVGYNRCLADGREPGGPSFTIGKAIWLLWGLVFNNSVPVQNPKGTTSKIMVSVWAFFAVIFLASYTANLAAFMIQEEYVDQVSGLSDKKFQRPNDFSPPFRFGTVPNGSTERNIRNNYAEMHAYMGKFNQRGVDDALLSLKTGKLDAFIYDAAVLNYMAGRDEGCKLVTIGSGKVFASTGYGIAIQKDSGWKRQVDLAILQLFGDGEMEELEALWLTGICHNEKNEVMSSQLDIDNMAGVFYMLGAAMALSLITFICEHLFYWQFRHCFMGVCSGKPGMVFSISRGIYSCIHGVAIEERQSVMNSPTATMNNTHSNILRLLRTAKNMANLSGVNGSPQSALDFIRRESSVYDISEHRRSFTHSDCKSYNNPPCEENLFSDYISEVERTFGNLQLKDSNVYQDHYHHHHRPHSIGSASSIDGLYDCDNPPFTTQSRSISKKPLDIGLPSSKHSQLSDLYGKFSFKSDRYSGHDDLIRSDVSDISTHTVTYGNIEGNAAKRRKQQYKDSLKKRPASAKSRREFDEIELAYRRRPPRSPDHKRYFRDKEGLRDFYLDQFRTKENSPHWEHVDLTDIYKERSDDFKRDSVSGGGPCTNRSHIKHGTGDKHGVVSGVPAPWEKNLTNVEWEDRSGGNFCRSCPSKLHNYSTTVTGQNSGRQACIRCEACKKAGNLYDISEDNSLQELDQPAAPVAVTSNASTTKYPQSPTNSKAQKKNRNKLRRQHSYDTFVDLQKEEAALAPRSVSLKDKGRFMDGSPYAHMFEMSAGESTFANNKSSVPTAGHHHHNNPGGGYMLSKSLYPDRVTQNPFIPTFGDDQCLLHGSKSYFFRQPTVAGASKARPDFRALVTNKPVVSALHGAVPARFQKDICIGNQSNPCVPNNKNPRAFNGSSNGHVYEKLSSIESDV

For orientation: pIC50 means the IC50 on a negative log10 scale, so that one unit is a factor of ten. What is called inhibition is the change of the read-out against control, counted positive when it falls. Turning to `CNC(=O)[C@@H]1CN(Cc2cnc(Oc3ccc(C)cc3F)nc2)CCO1` [Example 20], the negative-log IC50 (pIC50) at NMDA NR1/NR2B receptor was 6.88. Also, at Nav1.6 channel, the inhibition at 1 µM is -8.9% and the inhibition at 5 µM is -10.1%.
The matching figures for `CNC(=O)[C@@H]1CN(Cc2cnc(Oc3ccc(F)cc3C)nc2)CCO1` [Example 21]: 6.15, 1.3% and 3.6%.
The matching figures for `CNC(=O)[C@@H]1CN(Cc2cnc(Oc3ccc(C)cc3C)nc2)CCO1` [Example 22]: 5.96, 3.8% and -10.4%.
`CNC(=O)[C@@H]1CN(Cc2cnc(Oc3ccc(F)cc3F)nc2)CCO1` [Example 23]: the pIC50 at NMDA NR1/NR2B receptor was 6.84. On Nav1.6 channel, the inhibition at 1 µM came to 0.1% and the inhibition at 5 µM turned out to be 2.9%.
Regarding `CNC(=O)[C@@H]1CN(Cc2cnc(Oc3ccc(Cl)cc3F)nc2)CCO1` [Example 24], the pIC50 at NMDA NR1/NR2B receptor is 7.01. Further, on Nav1.6 channel, the inhibition at 1 µM stood at 5.8% and the inhibition at 5 µM is -3.7%.
Turning to `CNC(=O)[C@@H]1CN(Cc2cnc(Oc3ccc(Cl)cc3)nc2)CCO1` [Example 25], on NMDA NR1/NR2B receptor, the pIC50 was 6.67. Moreover, on Nav1.6 channel, the inhibition at 1 µM is -11.8% and the inhibition at 5 µM was -18.8%. The “inhibition of the Nav 1.6 channel (in words)” value against Nav1.6 channel (at 5 μM) was “not showing any significant inhibition”.
Turning to `CNC(=O)[C@@H]1CN(Cc2cnc(Oc3ccccc3Cl)nc2)CCO1` [Example 26], at NMDA NR1/NR2B receptor, the pIC50 is 6.26. In addition, on Nav1.6 channel, the inhibition at 1 µM came out at 12.8% and the inhibition at 5 µM was 5.7%.
The matching figures for `CNC(=O)[C@@H]1CN(Cc2cnc(Oc3ccccc3F)nc2)CCO1` [Example 27]: 6.46, -3.1% and 4.3%.
The matching figures for `CNC(=O)[C@@H]1CN(Cc2cnc(Oc3ccc(C)cc3)nc2)CCO1` [Example 28]: 6.30, -6.2% and -14.6%.
On the same counts, the results for `CNC(=O)[C@@H]1CN(Cc2cnc(Oc3ccc(F)cc3)nc2)CCO1` [Example 32] are 6.26, -7.7% and -13.5%.

Values taken from patent US11104670B2, “4-pyrimidin-5-ylmethyl-morpholine derivatives and the use thereof as medicament” (Boehringer Ingelheim International GmbH, priority 2018, dated 2021).
